Assay results reported in US20180303830A1, “CANCERS EXPRESSING CCR5 AND METHODS OF TREATMENT OF SAME” (THOMAS JEFFERSON UNIVERSITY, priority 2015, published 2018).

Columns and labels:
FC-IBC-02 cells = experiment: Boyden chamber migration and invasion assay in FC-IBC-02 cells; type: cell-based, human; settings: 100 μM, 48 hrs, compared to control; for invasion of FC-IBC-02 cells: matrigel-coated membrane; for migration of FC-IBC-02 cells: noncoated membrane
Description: The effects of CCR5 antagonists (Maraviroc and Vicriviroc) on cell migration and invasion in vitro were examined using matrigel-coated Boyden chamber assay in FC-IBC-02 cells, which are triple-negative, basal-like, cancer stem cell phenotype, and rapidly developed primary tumors and metastasis in vivo. Cells were treated by Maraviroc and Vicriviroc at 100 μM and support the conclusion that CCR5 is highly expressed in basal-like human IBC cells.
In FIG. 3, CCR5 antagonists Maraviroc and Vicriviroc suppress the migration and invasion of FC-IBC-02 cells. FIGS. 3A and 3B depict control and CCR5 antagonists treated cells at equal number were seeded onto the noncoated membrane (migration) and matrigel-coated membrane (invasion). After incubating 48 hrs. the cells crossed the membrane were stained with 0.05% crystal violet. FIGS. 3C and 3D, quantitation of 3A and 3B compared to controls was indicated.

SUM159 cells [1] = experiment: Lung metastasis of SUM159 cells in SCID mice, photon flux (IVIS); type: in vivo
Source text: The CCR5 antagonist, Maraviroc, was previously approved by the US Food and Drug Administration (FDA) for the use in treatment-nave adult […] with CCR5-trophic HIV. In order to determine the role endogenous CCR5 within SUM159 cells in lung metastasis, cells were introduced into SCID immune deficient mice, and tumor volume characterized using the IVIS system. […] (p<0.0001).
FIG. 7. Endogenous CCR5 promotes lung metastases in mice. FIG. 7A Representative timed photon emission of mice injected with SUM159 cells treated with either control or Maraviroc (at 14 mg/kg mouse body, time as shown in weeks). FIG. 7B Mean±SEM of photon flux for 6 animals in control group and 7 animals in maraviroc treatment group shown in 5 weeks. Maraviroc treatment reduces mean lung tumor volume by 98% which detected by photon flux ((3.01±1.16)×10^7 vs (1.05±0.44)×10^8, p=0.063 with Mann-Whitney Test).

SUM159 cells [2] = experiment: Phospho-γH2AX Western-blot of doxorubicin induced DNA damage in SUM159 cells; type: cell-based, human; settings: for doxorubicin induced phospho-γH2AX (DNA damage): 100 μM, SUM159 cells, doxorubicin treatment; for effect on CCR5-mediated DNA repair (phospho-γH2AX western-blot and DNA repair reporter assay): breast cancer cells overexpressing CCR5, doxorubicin and γ-radiation induced DNA damage
Source text: The chemokine receptor CCR5 is normally expressed on the surface of immune cells and served as HIV co-receptor. […] Compared with CCR5− cells, the CCR5+ cells were enriched with DNA damage/repair gene signature. […] Based on the existing theory that the resistance of cancer cells to the chemotherapy and radiation therapy caused by the existence of cancer stem cells, the inhibition of CCR5 by CCR5 antagonists will sensitize the response of breast cancer cells to chemotherapy and radiation therapy, therefore increase the efficiency of DNA damage inducing chemotherapy treatment for CCR5 expressing cancers.
FIG. 9. […] FIG. 9A The CCR5 stable-transfected and vector-control SUM159 cells were illuminated with 6.5 Gy of γ-radiation. The samples were collected at 0.5, 3 and 24 hours after y-radiation. The recruitment of phosphor-γH2AX and the reduction of abundance were faster in CCR5-transfected cells than vector-control cells. FIG. 9B The CCR5 stable-transfected and vector-control SUM159 cells were treated with doxorubicin. […] FIG. 9C CCR5 antagonist increased DNA damage in SUM159 cells. SUM159 cells treated with CCR5 antagonist, Maraviroc and Vicriviroc, both at 100 μM. DNA damage was induced by doxorubicin treatment. There are more doxorubicin induced phospho-γH2AX in Marviroc and Vicriviroc treated groups.

[3] = tested on: basal-like breast cancer model; experiment: In vivo metastasis in a basal-like breast cancer model; parameters: species or system mice
Source text: Chemokine CCL5 and its receptor CCR5 play a significant role in cancer progression and metastasis. Metastasis is the primary cause of death in patients with breast cancer. No effective treatments currently exist that are directed specifically to the metastatic process. There is evidence that the CCR5 receptor is expressed in a subset of human breast cancers. Importantly, embodiments disclosed herein support that CCR5 inhibitors previously developed and FDA approved for treatment of HIV, can effectively block breast cancer metastasis in preclinical models, thereby providing for an effective treatment of said metastatic breast cancers. The repurposing of drugs for alternative use in cancer metastasis, drugs that were previously approved by the FDA, may provide a more rapid solution for this deadly disease. Indeed, CCR5 inhibition by the FDA approved CCR5 antagonists Maraviroc and Vicriviroc reduced in vivo metastasis in a basal-like breast cancer model.
Indeed, in studies described herein, CCR5 is sufficient to induce invasiveness of breast cancer cells into matrigel, and metastasis to the lungs of mice. Accordingly, two distinct CCR5 inhibitors, maraviroc and vicriviroc, blocked CCR5 signaling and thereby block migration, invasion and metastasis in mice. […] The dose of CCR5 inhibitor used in these mouse models was the same as the dose used in patients for HIV.

SMILES | invasion of FC-IBC-02 cells (FC-IBC-02 cells) | migration of FC-IBC-02 cells (FC-IBC-02 cells) | photon flux, Mean±SEM (SUM159 cells [1]; 14 mg/kg, 5 weeks, 7 animals, p=0.063 Mann-Whitney vs control) | reduction of mean lung tumor volume detected by photon flux (SUM159 cells [1]; 14 mg/kg, 5 weeks, vs control) [%] | increase in breast cancer lung metastases (photon flux) in the control group compared to the treated group (SUM159 cells [1]; SUM159 cells in SCID mice, administered orally) [fold] | percentage of mice with detectable lung metastases (SUM159 cells [1]; SUM159 cells in SCID mice, administered orally, p<0.0001) | doxorubicin induced phospho-γH2AX (DNA damage) (SUM159 cells [2]) | effect on CCR5-mediated DNA repair (phospho-γH2AX western-blot and DNA repair reporter assay) (SUM159 cells [2]) | in vivo metastasis [3]
Cc1nnc(C(C)C)n1[C@@H]1C[C@H]2CC[C@@H](C1)N2CC[C@H](NC(=O)C1CCC(F)(F)CC1)c1ccccc1 [Maraviroc, 4,4-difluoro-N-{(1S)-3-[3-(3-isopropyl-5-methyl-4H-1,2,4-triazol-4-yl)-8-azabicyclo[3.2.1]oct-8-yl]-1-phenylpropyl}cyclohexanecarboxamide] | suppress | suppress | (3.01±1.16)×10^7 | 98 | 15 | significantly reduced | more | abolished these effects | reduced
COCC(c1ccc(C(F)(F)F)cc1)N1CCN(C2(C)CCN(C(=O)c3c(C)ncnc3C)CC2)C[C@@H]1C (stereo partly drawn) [Vicriviroc, 5-({4-[(3S)-4-{2-methoxy-1-[4-(trifluoromethyl)phenyl]ethyl}-3-methylpiperazin-1-yl]-4-methylpiperidin-1-yl}carbonyl)-4,6-dimethylpyrimidine] | suppress | suppress | – | – | – | – | more | abolished these effects | reduced
